Source: patent US6864272B2, “Method and composition for treating cancer using cellular organelle crystallizing agents” (priority 2000, dated 2005)

How the values were obtained:
9 L gliosarcoma = assay: In vivo antitumor activity of tetrazolium salts in polylactic acid polymer, established flank tumor in rats (Example 3); details: 2.5 mg/kg in polylactic acid polymer implanted in 14 day established tumor, tumor volume on day 60, n=6
SDH = assay: Inhibition of crystal formation on cellular structures by prior incubation with SDH inhibitor; format: cell-based; details: prior incubation of cells with the SDH inhibitor, crystals of Examples 4 through 7
From the text: The crystallization of organelles, such as centrosome, mitochondrion, or nuclear envelopes (or endoplasmic retulum), effectively stopped cell proliferation and induced cell death as well. This kind of cell death, which is different form either necrosis or appoptosis, is called cellular-organelle-crystallizatin-induced-death, […]. COCID also refers to the cell death, induced by the crystallization of cytoskeletons as well as the crystallization of the sub-units of cellular organelles and cytoskeletons. COCID further refers to the cell death, induced by the crystallization of proteins and small molecules located on cytoskeletons or the sub-units of cellular organelles and ccytoskeletons.
[…]

Row | SMILES | Tumor size (9 L gliosarcoma) | inhibition of the crystals on the cellular structures (SDH)
1 | c1ccc(-c2nn(-c3ccccc3)[n+](-c3ccccc3)n2)cc1 [TR, 2,3,5-triphenyltetrazolium chloride] | 44 ± 5.3 cm^3 | 
2 | c1ccc(-c2nn(-c3ccccc3)[n+](-c3cccc4ccccc34)n2)cc1 [TV, 2,5-diphenyl-3-[1-naphthyl]-2H-tetrazolium chloride] | 21 ± 2.3 cm^3 | 
3 | O=C(O)CC[N+](=O)[O-] [nitropropionic acid] |  | could be inhibited
